Numbered stars: 1 amine (or outer) side, 2 acyl side, 3 side chain; on linkers, the order of the positions; unused ones are H or OH. Square brackets hold non-standard residues; d marks the D form. Peptide text beside a SMILES is read from it. * marks the point of attachment. Hexanoyl(5S-NH,4S-OH,6-Ph) = O=C(CC[C@H](O)[C@H](Cc1ccccc1)N[*:1])[*:2]; X3 = O=C([C@H](Cc1ccccc1)C[C@H](O)[C@H](Cc1ccccc1)N[*:1])[*:2]; X4 = CC(C)C[C@H](C[C@H](O)[C@H](Cc1ccccc1)N[*:1])C(=O)[*:2]; X1 = CCC[C@H](C[C@H](O)[C@H](Cc1ccccc1)N[*:1])C(=O)[*:2]; X2 = C[C@H](C[C@H](O)[C@H](Cc1ccccc1)N[*:1])C(=O)[*:2]; Cbz = O=C(OCc1ccccc1)*
Experiments:
[1] = target: Human immunodeficiency virus type 1 protease (Human immunodeficiency virus 1, UniProt Q72874); assay: Binding affinity towards human immunodeficiency virus type 1 protease determined using continuum electrostatics solvation
Beta-secretase 1 = Beta-secretase 1 (Homo sapiens, UniProt P56817); assay: Binding affinity towards Beta-secretase determined using continuum electrostatics solvation
Sequence of Beta-secretase 1 (P56817 whole entry): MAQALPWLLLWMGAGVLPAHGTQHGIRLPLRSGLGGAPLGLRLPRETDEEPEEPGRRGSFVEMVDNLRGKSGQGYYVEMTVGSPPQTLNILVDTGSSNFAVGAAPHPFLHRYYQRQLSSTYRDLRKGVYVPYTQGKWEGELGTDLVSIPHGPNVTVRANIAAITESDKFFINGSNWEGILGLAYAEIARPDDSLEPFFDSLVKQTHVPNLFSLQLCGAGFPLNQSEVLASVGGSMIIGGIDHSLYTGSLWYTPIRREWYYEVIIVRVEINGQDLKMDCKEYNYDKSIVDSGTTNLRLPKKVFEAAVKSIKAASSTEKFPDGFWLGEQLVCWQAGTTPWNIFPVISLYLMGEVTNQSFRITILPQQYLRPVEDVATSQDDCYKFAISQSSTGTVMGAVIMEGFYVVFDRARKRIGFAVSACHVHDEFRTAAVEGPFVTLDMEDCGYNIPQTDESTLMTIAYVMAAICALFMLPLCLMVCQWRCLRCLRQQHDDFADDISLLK

Ki (Beta-secretase 1)	Structure (SMILES)	Ki [1]
–	COC(=O)[C@@H](NC(=O)[C@@H](NC(=O)CC[C@H](O)[C@H](Cc1ccccc1)NC(=O)[C@H](C)NC(=O)[C@H](C)NC(=O)OCc1ccccc1)C(C)C)C(C)C (Cbz-AA[Hexanoyl(5S-NH,4S-OH,6-Ph)]VV-OMe)	44 nM
58.8 nM	CSCCC(NC(=O)OC(C)(C)C)C(=O)N[C@@H](CC(C)C)C(O)CC(C)C(=O)N[C@H](C(=O)NCc1ccccc1)C(C)C (some centres undefined)	–
–	CC(NC(=O)OCc1ccccc1)C(=O)NC(Cc1ccccc1)[C@@H](O)C[C@@H](Cc1ccccc1)C(=O)NC(C(N)=O)C(C)C (some centres undefined)	0.6 nM
–	CCC[C@H](C[C@H](O)C(Cc1ccccc1)NC(=O)C(C)NC(=O)OCc1ccccc1)C(=O)NC(C(=O)NC(C(=O)OC)C(C)C)C(C)C (some centres undefined)	0.6 nM
–	CC(NC(=O)OCc1ccccc1)C(=O)NC(Cc1ccccc1)[C@@H](O)C[C@@H](C)C(=O)NC(C(N)=O)C(C)C (some centres undefined)	50 nM
2.5 nM	CSCCC(NC(=O)[C@@H](NC(=O)OC(C)(C)C)C(C)C)C(=O)N[C@@H](CC(C)C)C(O)CC(C)C(=O)N[C@H](C(=O)NCc1ccccc1)C(C)C (some centres undefined)	–
–	COC(=O)[C@@H](NC(=O)[C@@H](NC(=O)CC[C@H](O)[C@H](Cc1ccccc1)NC(=O)[C@H](C)NC(=O)[C@H](C)N)C(C)C)C(C)C (H-AA[Hexanoyl(5S-NH,4S-OH,6-Ph)]VV-OMe)	4 nM
–	CC(C)C(NC(=O)CC[C@H](O)C(Cc1ccccc1)NC(=O)OC(C)(C)C)C(N)=O (some centres undefined)	6500 nM
–	CCC[C@H](C[C@H](O)C(Cc1ccccc1)NC(=O)C(C)NC(=O)OCc1ccccc1)C(=O)NC(C(N)=O)C(C)C (some centres undefined)	20 nM
–	CC(C)C[C@H](C[C@H](O)C(Cc1ccccc1)NC(=O)C(C)NC(=O)OCc1ccccc1)C(=O)NC(C(N)=O)C(C)C (some centres undefined)	3.9 nM
9.4 nM	CC(C)C[C@H](NC(=O)C(CS(C)(=O)=O)NC(=O)[C@@H](NC(=O)OC(C)(C)C)C(C)C)C(O)CC(C)C(=O)N[C@H](C(=O)NCc1ccccc1)C(C)C (some centres undefined)	–
–	COC(=O)C(NC(=O)C(NC(=O)[C@H](C)C[C@H](O)C(Cc1ccccc1)NC(=O)C(C)NC(=O)OCc1ccccc1)C(C)C)C(C)C (some centres undefined)	1.6 nM
–	CC(C)C[C@H](C[C@H](O)C(Cc1ccccc1)NC(=O)OC(C)(C)C)C(=O)NC(C(N)=O)C(C)C (some centres undefined)	23 nM
–	COC(=O)[C@@H](NC(=O)[C@@H](NC(=O)[C@H](CC(C)C)C[C@H](O)[C@H](Cc1ccccc1)NC(=O)[C@H](C)NC(=O)[C@H](C)NC(=O)OCc1ccccc1)C(C)C)C(C)C (Cbz-AA[X4]VV-OMe)	0.8 nM
0.3 nM	CC(C)C[C@H](NC(=O)[C@@H](N)CCC(=O)O)C(=O)N[C@@H](CC(=O)O)C(=O)N[C@@H](CC(C)C)C(=O)C(O)CN[C@@H](C)C(=O)N[C@H](C(=O)N[C@@H](CCC(=O)O)C(=O)N[C@@H](Cc1ccccc1)C(=O)O)C(C)C (some centres undefined)	–
–	CC(C)C(NC(=O)[C@H](C)C[C@H](O)C(Cc1ccccc1)NC(=O)OC(C)(C)C)C(N)=O (some centres undefined)	260 nM
–	CC(NC(=O)OCc1ccccc1)C(=O)NC(Cc1ccccc1)[C@@H](O)CCC(=O)NC(C(N)=O)C(C)C (some centres undefined)	2500 nM

Ki (Beta-secretase 1)	Structure (SMILES)	Ki [1]
–	COC(=O)[C@@H](NC(=O)[C@@H](NC(=O)[C@H](C)C[C@H](O)[C@H](Cc1ccccc1)NC(=O)[C@H](C)NC(=O)[C@H](C)NC(=O)OCc1ccccc1)C(C)C)C(C)C (Cbz-AA[X2]VV-OMe)	0.6 nM
1130 nM	CC(C)C[C@H](NC(=O)[C@H](CS(C)(=O)=O)NC(=O)OC(C)(C)C)C(O)CC(C)C(=O)N[C@H](C(=O)NCc1ccccc1)C(C)C (some centres undefined)	–
61.4 nM	CC(C)C[C@H](NC(=O)C(NC(=O)[C@@H](NC(=O)OC(C)(C)C)C(C)C)C(N)=O)C(O)CC(C)C(=O)N[C@@H](C)C(=O)NCc1ccccc1 (some centres undefined)	–
3130 nM	CC(C)C[C@H](NC(=O)[C@@H](NC(=O)OC(C)(C)C)C(N)=O)C(O)CC(C)C(=O)N[C@H](C(=O)NCc1ccccc1)C(C)C (some centres undefined)	–
–	CC(C)C(NC(=O)[C@H](Cc1ccccc1)C[C@H](O)C(Cc1ccccc1)NC(=O)OC(C)(C)C)C(N)=O (some centres undefined)	1.4 nM
22400 nM	CC(C)C[C@H](NC(=O)[C@@H](NC(=O)OC(C)(C)C)C(N)=O)C(O)CC(C)C(=O)N[C@@H](C)C(=O)NCc1ccccc1 (some centres undefined)	–
–	CCC[C@H](C[C@H](O)[C@H](Cc1ccccc1)NC(=O)[C@H](C)NC(=O)[C@H](C)NC(=O)OCc1ccccc1)C(=O)N[C@H](C(=O)N[C@H](C(=O)OC)C(C)C)C(C)C (Cbz-AA[X1]VV-OMe)	0.4 nM
–	COC(=O)[C@@H](NC(=O)[C@@H](NC(=O)[C@H](C)C[C@H](O)[C@H](Cc1ccccc1)NC(=O)[C@H](C)NC(=O)[C@H](C)N)C(C)C)C(C)C (H-AA[X2]VV-OMe)	3 nM
–	CCC[C@H](C[C@H](O)[C@H](Cc1ccccc1)NC(=O)[C@H](C)NC(=O)[C@H](C)N)C(=O)N[C@H](C(=O)N[C@H](C(=O)OC)C(C)C)C(C)C (H-AA[X1]VV-OMe)	1.2 nM
–	CCC[C@H](C[C@H](O)C(Cc1ccccc1)NC(=O)OC(C)(C)C)C(=O)NC(C(N)=O)C(C)C (some centres undefined)	50 nM
–	COC(=O)C(NC(=O)C(NC(=O)CC[C@H](O)C(Cc1ccccc1)NC(=O)C(C)NC(=O)OCc1ccccc1)C(C)C)C(C)C (some centres undefined)	118 nM
–	COC(=O)C(NC(=O)C(NC(=O)[C@H](Cc1ccccc1)C[C@H](O)C(Cc1ccccc1)NC(=O)C(C)NC(=O)OCc1ccccc1)C(C)C)C(C)C (some centres undefined)	0.6 nM
50.1 nM	CSCC(NC(=O)[C@@H](NC(=O)OC(C)(C)C)C(C)C)C(=O)N[C@@H](CC(C)C)C(O)CC(C)C(=O)N[C@H](C(=O)NCc1ccccc1)C(C)C (some centres undefined)	–
5.9 nM	CC(C)C[C@H](NC(=O)C(NC(=O)[C@@H](NC(=O)OC(C)(C)C)C(C)C)C(N)=O)C(O)CC(C)C(=O)N[C@H](C(=O)NCc1ccccc1)C(C)C (some centres undefined)	–
–	COC(=O)C(NC(=O)C(NC(=O)[C@H](CC(C)C)C[C@H](O)C(Cc1ccccc1)NC(=O)C(C)NC(=O)OCc1ccccc1)C(C)C)C(C)C (some centres undefined)	0.9 nM
–	COC(=O)[C@@H](NC(=O)[C@@H](NC(=O)[C@H](Cc1ccccc1)C[C@H](O)[C@H](Cc1ccccc1)NC(=O)[C@H](C)NC(=O)[C@H](C)NC(=O)OCc1ccccc1)C(C)C)C(C)C (Cbz-AA[X3]VV-OMe)	0.4 nM
–	COC(=O)[C@@H](NC(=O)[C@@H](NC(=O)[C@H](CC(C)C)C[C@H](O)[C@H](Cc1ccccc1)NC(=O)[C@H](C)NC(=O)[C@H](C)N)C(C)C)C(C)C (H-AA[X4]VV-OMe)	0.6 nM

From ChEMBL document CHEMBL1137231, “Efficient evaluation of binding free energy using continuum electrostatics solvation” (J Med Chem, 2004)
